# Source: paper PMC5691623 (Viruses, 2017)
# Tested on: SFV vector VA7-mCherry
# Experiment: Live microscopy of SFV infection in Pa02C pancreatic cancer cells
# Type: cell-based, Semliki Forest virus
# Conditions: 1 µM, low moi (0.01), 96 h
compound,measurement,value
CC1(C)CCC(c2ccc(Cl)cc2)=C(CN2CCN(c3ccc(C(=O)NS(=O)(=O)c4ccc(N[C@H](CCN5CCOCC5)CSc5ccccc5)c(S(=O)(=O)C(F)(F)F)c4)cc3)CC2)C1 [ABT-263],effect on replication and spread of SFV,attenuated the replication and spread of the virus
